# Like-named read-outs stand apart in the source and are kept apart here.
# Assays:
# [1] = system: HeLa cells; test: Identification of cell uptake by confocal microscopy; format: cell-based; settings: 10 µM compound, serum-free DMEM, 37° C., 30 minutes
# Experimental: (§1) High glucose Dulbecco's modified Eagle's medium (DMEM), Roswell Park Memorial Institute (RPMI) 1640, Dulbecco's phosphate buffered saline, pH 7.4 (DPBS), fetal bovine serum (FBS), and trypsin/EDTA were obtained from Gibco™ and Thermo Fischer Scientific. Mitotracker and Lysotracker were obtained from Invitrogen Inc. (USA). 3-(4,5-Dimethyl-2-thiazolyl)-2,5-diphenyl-2H-tetrazolium bromide (MTT) was purchased from Sigma-Aldrich Korea Ltd. All solutions were prepared using Milli-Q purified water […]. HeLa cells were cultured in 10% (v/v) FBS containing DMEM and penicillin at 37° C. under a wet 5% CO2 environment. For SW480 cells and HT-29 cells, RMPI 1640 medium was used.
# (§2) HeLa cells (1×10^5 cells per well) were seeded in a 35 mm cover glass bottom dish (SPL Life Sciences Co., Ltd., Korea) and incubated for 24 hours. […] After incubation at 37° C. for 30 minutes, the cells were washed three times with cold PBS to remove non-internalized samples. Live HeLa cells were examined with a confocal laser scanning microscope (Olympus Fluoview FV1000) equipped with an oil immersion lens (NA 1.30, 40×). […] Each analysis was repeated three times.
# [2] = system: HeLa cells
# Experimental: as §2
# [3] = system: SW480 cells; test: Measurement of cytotoxicity, MTT assay; format: cell-based; settings: Homo sapiens, 48 hours incubation, read-out: IC50 (cell viability, MTT)
# Experimental: as §1
# (§3) SW480 cells and HT-29 cells (4.5×10^3 cells per well) were seeded in a 96-well plate. After 24 hours, the medium was replaced with serum-free RMPT 1640. […] The treated cells were incubated for 48 hours, washed with cold PBS, and then exposed to MTT in the medium for 4 hours. The medium was replaced with DMSO, and the dissolved formazan dye was quantified by measuring the absorbance at 500 nm. Non-treated cells were measured in the same manner as a control.
# [4] = system: HT-29 cells; test: Measurement of cytotoxicity, MTT assay; format: cell-based; settings: Homo sapiens, 48 hours incubation, read-out: IC50 (cell viability, MTT)
# Experimental: as §1, §3
Molecule,Cell uptake (intracellular FITC fluorescence in live cells) [1],"Intracellular localization ([2]; HeLa cells, 10 μM)","Intracellular localization ([2]; HeLa cells, 20 μM, incubated 30 minutes)","Co-localization with Lysotracker (lysosomal marker) ([2]; HeLa cells, Lysotracker 200 nM)","Co-localization with Mitotracker (mitochondrial marker) ([2]; live HeLa cells, 10 uM for 30 minutes, then Mitotracker 100 nM for 30 minutes)",IC50 [3],IC50 [4]
"1-O-[20-O—(N-succinyl-6-aminohexanoyl)camptothecin]-2,3,4,5-tetra-O—(N-{bis-[3-N′,N″-bis-(tert-butoxycarbonyl)-guanidino)-propyl]}-6-aminohexanoyl)-6-O-[6-(fluoresceinyl-5-thioureido)-hexanoyl]-D-sorbitol⋅8HCl [compound (10)]",strong green fluorescence appears mainly in the cytoplasm,intracellular localization for mitochondria,fluorescence exists even inside the nucleus,co-localization was not observed,Co-localization was markedly observed,,
20-O-[6-(fluoresceinyl-5-thioureido)-hexanoyl)camptothecin [compound (4)],intracellular fluorescence was not observed,,,,,,
"CC[C@@]1(O)C(=O)OCc2c1cc1n(c2=O)Cc2cc3ccccc3nc2-1 [CPT, Camptothecin]",,,,,,1530 nM,990 nM

# Reference: US11464864B2, “Drug-bound compound and use thereof” (priority 2018, dated 2022)
